Data from patent publication US20250250299A1, “MACROCYCLIC IMMUNOMODULATORS” (Bristol-Myers Squibb Company, priority 2022, published 2025).
Where a SMILES comes first, the peptide text is derived from it. Bridges are numbered along the chain shown (N, C = ends). [ ]: non-standard residue; d: D form. The star is where a group is joined. X1 = O=C(O)CCCCCCCCCCCCCCCCC(=O)N[C@@H](CCC(=O)NCCOCCOCCOCCOCCOCCOCCOCCOCCOCCOCCOCCn1cc(C*)nn1)C(=O)O; Phe(4-COOH) = N[C@@H](Cc1ccc(C(=O)O)cc1)C(=O)O; Bip = N[C@@H](Cc1ccc(-c2ccccc2)cc1)C(=O)O; Phe(3-Me) = Cc1cccc(C[C@H](N)C(=O)O)c1; Cha = N[C@@H](CC1CCCCC1)C(=O)O; Carboxymethyl = O=C(O)C*; Orn = NCCC[C@H](N)C(=O)O; Dab = NCC[C@H](N)C(=O)O; Nva = CCC[C@H](N)C(=O)O; Abu = CC[C@H](N)C(=O)O

Target: T1, human PD-1 (Jurkat-PD-1 cells; binding of PE-labeled human PD-L1-Ig) (Homo sapiens, UniProt Q15116)
T1 construct: expressed in transfected cells; host or cells: Jurkat (Jurkat-PD-1 / Jurkat-hPD-1)
T1 sequence (Q15116 25-288): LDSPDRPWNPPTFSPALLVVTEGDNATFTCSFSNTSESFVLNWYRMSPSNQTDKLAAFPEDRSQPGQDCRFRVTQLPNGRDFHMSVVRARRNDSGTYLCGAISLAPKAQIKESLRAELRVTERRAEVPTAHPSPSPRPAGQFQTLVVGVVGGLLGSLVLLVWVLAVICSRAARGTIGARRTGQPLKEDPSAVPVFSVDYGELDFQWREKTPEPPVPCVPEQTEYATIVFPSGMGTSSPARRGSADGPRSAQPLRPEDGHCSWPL
Experiment: Jurkat-PD-1 Cell Binding High-Content Screening Assay
Settings: Jurkat cell line over-expressing human PD-1; compound 2 h at 37° C., then PE-labeled PD-L1-Ig 20 nM final, 1 hour; read-out: Jurkat hPD1 PDL1 IC50

Row | IC50 [nM] | Structure (SMILES)
1 | 54 | CCC[C@@H]1NC(=O)CSC[C@@H](C(=O)N[C@@H](CCN)C(N)=O)NC(=O)[C@H](CCC(=O)O)NC(=O)[C@H](C(C)C)NC(=O)[C@H](CC2CCCCC2)NC(=O)[C@H](CCN)NC(=O)[C@@H](CC(C)C)NC(=O)[C@H](CCCN)NC(=O)[C@H](Cc2ccc(C(=O)O)cc2)NC(=O)[C@H](Cc2ccc(-c3ccccc3)cc2)NC(=O)[C@H](Cc2ccc(OCc3cn(CCOCCOCCOCCOCCOCCOCCOCCOCCOCCOCCOCCNC(=O)CC[C@H](NC(=O)CCCCCCCCCCCCCCCCC(=O)O)C(=O)O)nn3)cc2)NC(=O)[C@H](Cc2cccc(C)c2)NC(=O)[C@H](CC(=O)O)NC(=O)[C@H](Cc2ccc(C(=O)O)cc2)NC1=O [Compound 1022] ({CH2CO}-[Nva][Phe(4-COOH)]D[Phe(3-Me)]Y(X1)[Bip][Phe(4-COOH)][Orn][dL][Dab][Cha]VEC[Dab]-NH2; thioether N-14)
2 | 90 | CC[C@@H]1NC(=O)CSC[C@@H](C(=O)N[C@@H](CCN)C(N)=O)NC(=O)[C@H](CCC(=O)O)NC(=O)[C@H](C(C)C)NC(=O)[C@H](CC2CCCCC2)NC(=O)[C@H](CCN)NC(=O)[C@@H](CC(C)C)NC(=O)[C@H](CCCN)NC(=O)[C@H](Cc2ccc(OCC(=O)O)cc2)NC(=O)[C@H](Cc2ccc(-c3ccccc3)cc2)NC(=O)[C@H](Cc2ccc(OCc3cn(CCOCCOCCOCCOCCOCCOCCOCCOCCOCCOCCOCCNC(=O)CC[C@H](NC(=O)CCCCCCCCCCCCCCCCC(=O)O)C(=O)O)nn3)cc2)NC(=O)[C@H](Cc2cccc(C)c2)NC(=O)[C@H](CC(=O)O)NC(=O)[C@H](Cc2ccc(OCC(=O)O)cc2)NC1=O [Compound 1017] ({CH2CO}-[Abu]Y(Carboxymethyl)D[Phe(3-Me)]Y(X1)[Bip]Y(Carboxymethyl)[Orn][dL][Dab][Cha]VEC[Dab]-NH2; thioether N-14)
